Test results reported in patent US9873883B2, “Glyphosate resistant plants and associated methods” (Dow AgroSciences LLC, priority 2012, dated 2018).
Where two headings read alike, the source gives them in different places.

How the values were obtained:
[1] = target: T1, Brassica napus (canola) EPSP synthase DGT-3 (GENBANK P17688) variant DGT-3 v7 (G→A, P→S; GAPS) (Brassica napus, UniProt P17688, G173A/P178S); test: In vitro kinetic assay (inorganic phosphate production, malachite green); format: biochemical; details: IC50 (glyphosate)
T1 construct: made in house; host or cells: E. coli Rosetta2 (DE3)

[2] = target: Glycine max (soybean) EPSP synthase DGT-1 variant DGT-1 v7 (G→A, P→S; GAPS) (Glycine max, UniProt I1J7U9, G182A/P187S); test: as above; format: biochemical
[3] = target: T2, Triticum aestivum (wheat) EPSP synthase DGT-7 variant DGT-7 v7 (G→A, P→S; GAPS) (Triticum aestivum, UniProt B5M6A1, G167A/P172S); test: as above; format: biochemical; details: IC50 (glyphosate)
T2 construct: GAPS double mutant

[4] = test system: untransformed B104 maize line; test: Growth inhibition dosage response in maize callus culture; format: cell-based, Zea mays
[5] = target: Mariprofundus ferrooxydans EPSP synthase DGT-14 variant DGT-14 v6 (G101A), SEQ ID NO:1 (Mariprofundus ferrooxydans, UniProt Q0EYT4, G101A); test: In vitro kinetic assay (inorganic phosphate production, malachite green); format: biochemical; details: IC50 (glyphosate), values greater than 50 are estimates
[6] = test system: Arabidopsis transformed with TraP9 v2::dgt-14 (pDAB105527); test: Postemergence glyphosate tolerance, visual injury; format: in vivo, Arabidopsis thaliana; details: 2 weeks after application
[7] = test system: Arabidopsis transformed with TraP13 v2::dgt-14 (pDAB105529); test: Postemergence glyphosate tolerance, visual injury; format: in vivo, Arabidopsis thaliana; details: 2 weeks after application

Compound: O=C(O)CNCP(=O)(O)O [glyphosate, N-(phosphonomethyl)glycine]
- IC50 ([1]; at 60 μM PEP): 42 mM
- IC50 ([1]; at 1 mM PEP, values greater than 50 are estimates): 50.5 mM
- IC50 [2]: > 80 mM
- IC50 ([2]; read-out: IC50 (glyphosate), at 60 μM PEP, values greater than 50 are estimates): > 80 mM
- IC50 ([3]; at 60 μM PEP): 15.4 mM
- IC50 ([3]; at 1 mM PEP): 19.7 mM
- glyphosate concentrations sufficient to inhibit cell growth [4]: ≥ 0.25 mM
- IC50 ([5]; at 60 μM PEP): > 80 mM
- IC50 ([5]; at 1 mM PEP): > 80 mM
- Visual % injury (Ave) ([6]; T2, 840 g ae/ha): 0.0%
- Visual % injury (Ave) ([6]; T3, 840 g ae/ha): 0.0%
- Visual % injury (Ave) ([7]; T2, 840 g ae/ha): 1.3%
- Visual % injury (Ave) ([7]; T3, 840 g ae/ha): 0.0%
